What all share (experiment): DTP human tumour cell line panel, 48 h
Test [1] deals with SF-295 CNS.
The subject of test [2] is KM12 colon.
Test [3] has as its system SF-268 CNS.
Test [4] concerns A549 NSCLC.
The test system of test [5] is HCT-15 colon.
Test [6] concerns SR leukemia.
For test [7], the system named is EKVX NSCLC.
Test [8] concerns COLO 205 colon.
The subject of test [9] is OVCAR-4 ovarian.
In test [10] the test system is HOP-62 NSCLC.

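These data come from cells grown in 96-well plates and exposed to compound for 48 hours at five concentrations. Here, GI50 denotes the concentration required for 50% inhibition of growth. TGI: total growth inhibition.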

Regarding `COC(=O)CCC(=O)C(C#N)c1ccc(Cl)cc1Cl` (stereo not drawn), the TGI in [1], in test [2], in test [3], in test [4], in test [5] and in test [6] was more than 100 µM each time. Moreover, the concentration for total growth inhibition (TGI) (in general, the concentration giving total growth inhibition) in test [7] is more than 100 µM.

Consider `NC(CCCNCc1ccccc1O)C(=O)O` (stereo not drawn), for which the concentration for total growth inhibition (TGI) in [8], in test [1], in [9], in test [2], in test [10] and in [3] was more than 100 µM in each case. For the same compound, the total growth inhibition concentration (TGI) in test [4], in test [5] and in [7] was more than 100 µM throughout.

With `[O-][N+]1=C(c2ccccc2)COc2ccccc21`, the TGI in test [8], in [1], in test [9], in test [2], in test [10] and in [3] was more than 100 µM in each case. For the same compound, the TGI in test [4], in [5] and in test [6] was more than 100 µM in each case.

In the case of `C/C(CN1C(=O)c2ccccc2C1=O)=N\NS(C)(=O)=O`, the concentration for total growth inhibition (TGI) in test [8], in test [1], in [9], in [2], in test [10] and in test [3] was more than 100 µM each time. Moreover, the total growth inhibition concentration (TGI) in test [4], in test [5] and in [7] was more than 100 µM throughout.

For the compound `C#CCOc1c(OC)cc(C(=O)/C(C)=C/c2cccc(N=[N+]=[N-])c2)cc1OC`, the 50% growth inhibitory concentration (GI50) (as a rule, the concentration that inhibits growth by half) was 0.3 µM in [8]; 0.122 µM in [1]; 1.19 µM in test [9]; 0.0845 µM in [2]; 0.214 µM in [10]; 0.637 µM in [3]. In addition, the 50% growth inhibitory concentration (GI50) in test [4] is 0.406 µM; in test [5], 0.0499 µM; in test [7], 0.517 µM. The total growth inhibition concentration (TGI) in test [8] was 2.98 µM; in test [1], more than 100 µM; in [9] it was more than 100 µM; in [2] it was more than 100 µM; in test [10], more than 100 µM; in [3] it was more than 100 µM. The total growth inhibition concentration (TGI) in [4], in test [5] and in [7] was more than 100 µM each time.

For the compound `C/C(CC(=O)Nc1ccc([N+](=O)[O-])cc1)=N/N=C(N)N`, the TGI in test [8], in [1], in test [2], in test [10], in test [3] and in [4] was more than 100 µM in each case. The same compound showed a total growth inhibition concentration (TGI) in test [7] of more than 100 µM.

As to `O=C(Nc1ccc(Cl)cc1Cl)/C(Cl)=C1/Sc2ccccc2NC1=O`, the concentration for total growth inhibition (TGI) in test [8], in [9], in test [10], in [3], in [4] and in [5] was more than 100 µM throughout. This compound also showed a TGI in test [7] of more than 100 µM.

Consider `COc1ccc(-c2oncc2-c2cc(OC)c3c(c2)OCO3)cc1`, for which the GI50 was 2.8 µM in [8]; 2.13 µM in test [1]; 10 µM in test [9]; 2.66 µM in test [2]; 3.91 µM in test [10]; 7.38 µM in test [3]. In addition, the GI50 in test [4] is 3.58 µM; in [5] it was 1.2 µM; in test [6], 1.13 µM. Besides, the total growth inhibition concentration (TGI) in test [8] was 10.4 µM; in test [1], 10.3 µM; in [9], more than 100 µM; in test [2], more than 82.2 µM; in [10], more than 71.1 µM; in test [3], more than 100 µM. Further, the figures for the total growth inhibition concentration (TGI) in test [4], in test [5] and in [6] were more than 100 µM, more than 100 µM and 39.6 µM, respectively.

`N=C(N)c1ccc(-c2ccc(-c3ccco3)o2)cc1F`: the GI50 in test [8] was 1.8 µM; in test [1], 1.67 µM; in test [9] it was 2.88 µM; in [2], 1.92 µM; in [10], 2.96 µM; in [3], 2.9 µM. The GI50 in test [4] is 3.04 µM; in test [5], 2.02 µM; in test [6], 1.97 µM. Besides, the TGI in [8] worked out at 3.62 µM; in [1], 3.81 µM; in [9] it was 11.1 µM; in [2], 3.62 µM; in test [10], 10.4 µM; in test [3], 10.4 µM. Besides, the TGI was 10.6 µM in test [4], 4.81 µM in test [5] and 5.4 µM in test [6].

As to `Cc1ccc(S(=O)(=O)N2C/C(=C\c3cc(F)cc(F)c3)C(=O)/C(=C/c3cc(F)cc(F)c3)C2)cc1`, the GI50 in test [8] was 0.653 µM; in [1], 0.291 µM; in test [9] it was 0.367 µM; in [2], 0.268 µM; in [10], 1.5 µM; in [3], 0.347 µM. Further, the GI50 in test [4] is 2.42 µM; in test [5] it was 0.22 µM; in test [6] it was 0.0364 µM. Besides, the TGI in test [8] worked out at 2.33 µM; in test [1], 1.06 µM; in test [9], 3.57 µM; in test [2] it was 0.704 µM; in test [10] it was 4.66 µM; in [3], 1.31 µM. For the same compound, the concentration for total growth inhibition (TGI) stood at 10.1 µM in test [4], 0.966 µM in test [5] and 0.296 µM in [6].

Regarding `O=C(O)c1cn(C2CC2)c2cc(N3CCN(C(=O)Nc4nc(-c5ccc(Cl)cc5)cs4)CC3)c(F)cc2c1=O`, the GI50 in test [8] is 3.32 µM; in [1], 3.03 µM; in test [9], 3.61 µM; in test [2], 2.15 µM; in [10], 3 µM; in [3] it was 0.828 µM. In addition, the GI50 in test [4] was 2.71 µM; in test [5], 1.71 µM; in test [7], 2.97 µM. Besides, the TGI in test [8] is more than 100 µM; in test [1], 23.7 µM; in test [9] it was more than 100 µM; in test [2], more than 100 µM; in test [10] it was 96.1 µM; in test [3], more than 100 µM. In addition, the concentration for total growth inhibition (TGI) in [4], in test [5] and in test [7] was more than 100 µM in each case.
